Measured values from a melting point compilation (Tetko et al.; mined from patent text by program, amines drawn as free bases though some values may be those of a salt).

SMILES | melting point
COc1cc(Nc2c(C#N)cnc3cc(/C=C/CCN4CCOCC4)ccc23)c(Cl)cc1Cl | 88 to 89 °C
CCCC(Cc1ccc(OCCNC(=O)c2ccc(-c3ccccn3)cc2)cc1)C(=O)O (centres undefined) | 81 to 82.5 °C
CS(=O)(=O)c1ccc(-c2cnn(CC(F)(F)F)c(=O)c2Nc2cccc(F)c2)cc1 | 156 to 158 °C
CNC(=O)NCCCn1cc(Cn2ccnc2)c2ccccc21 | 123 to 124 °C
COc1cccc2c1OC(CN1CC=C(c3c[nH]c4ccc(C#N)cc34)CC1)CO2 (centres undefined) | 235 to 238 °C
CCc1c(C(=O)NNC(=O)C(O)c2cc(F)cc(F)c2)ccc(O)c1C (centres undefined) | 187 °C
CC1(C)Oc2ccc(S(=O)(=O)c3ccccc3)cc2[C@@H](N2CCCC2=O)[C@@H]1O (relative stereo) | 200 to 201 °C
CCCCC(C)C(O)CCc1cc(O)c(O)cc1Br (centres undefined) | 68 to 71 °C
CC(=O)OC1CCC2(C)C(=CC(=NO)C3C2CCC2(C)C(OC(C)=O)CCC32)C1 (centres undefined) | 236 to 238 °C
O=C(Nc1ccc2cc(CN3CCCCC3)ccc2c1)N1CCC(c2ccc(Cl)cc2)CC1 | 231 to 232 °C
CCc1nc2c(C)c(NS(C)(=O)=O)cnc2n1-c1ccc(CCNC(=O)NS(=O)(=O)c2ccc(C)cc2)cc1 | 166 °C
Cc1cnc2c(c1)COP(=S)(OC(C)C)O2 (centres undefined) | 96 to 98 °C
N#Cc1ccccc1Oc1cc(-n2cccc2)ccc1O | 120 to 122 °C
CCCn1nc(C(C)C)c(C(=O)O)c1Cc1ccc(-c2ccccc2NS(=O)(=O)C(F)(F)F)cc1 | 75 to 78 °C
Oc1ccc(OC[C@@H](O)CNCCc2ccc(-n3c(CCC4CCCC4)nc4cccnc43)cc2)cc1 | 59 to 61 °C
O=C(Nc1cnn2ccccc12)C1CC1 | 159 to 162 °C
COC(=O)NN=Cc1ccc([N+](=O)[O-])cc1 | 212 to 213 °C
CON(C(=O)c1cn(C)nc1C(F)F)C(C)c1ccc(I)cc1 (centres undefined) | 72 to 74 °C
COc1cc(N[C@H]2CC[C@H](NCc3ccccc3)CC2)c(Cl)cc1C(N)=O | 204 to 206 °C
COc1cc2ncc(C#N)c(Nc3ccc(F)c(Cl)c3)c2cc1NC(=O)C=CCN1CCC(N2CCCCC2)CC1 | 140 to 144 °C

SMILES | melting point
CC1(CSc2ccc(Cl)cc2)COC2(CCCCCCCCCCC2)OO1 (centres undefined) | 93 to 94 °C
CCN(SN(C)C=Nc1ccc(Cl)cc1C)c1ccccc1 | 51.5 to 53 °C
CC(=O)OCc1cc(COC(C)=O)n(C(c2ccccc2)(c2ccccc2)c2ccccc2)n1 | 119 to 121 °C
CO[C@@H]([C@H](OC)[C@H](O)COS(C)(=O)=O)[C@H](O)COS(C)(=O)=O | 112 to 114 °C
CC(C)=CCn1ccnc1[N+](=O)[O-] | 48 to 49 °C
O=[N+]([O-])c1ccc(Cl)cc1OCC=Cc1ccccc1 | 74.5 to 75.5 °C
C[Si](C)(C)CCOCn1c(Br)nc(C#N)c1C#N | 47 to 52 °C
COc1ccc(-c2cnc(N3CCc4c([nH]c5ccccc45)C3c3ccc4c(c3)OCO4)nc2)cc1OC (centres undefined) | 173 to 175 °C
N#CCCn1cccc1-c1ccc2cnc(Nc3cccc(N4CCCC4=O)c3)nn12 | 60 to 67 °C
CC(=O)OC1CSC(Oc2ccc(-c3ccnc(F)c3)nc2)C(OC(C)=O)C1OC(C)=O (centres undefined) | 179 °C
CCCc1nc2c(N)nc3cc(OCCCO)ccc3c2s1 | 157 to 160 °C
CCNCC1(O)CCN(c2cc3c(cc2F)c(=O)c(C(=O)O)cn3C2CC2)C1 (centres undefined) | 202 to 207 °C
CC1(C)O[C@@H](CN=C2OCc3ccccc32)[C@H](CN=C2OCc3ccccc32)O1 | 204 °C
CC(C)(C)c1cc(-c2nnc(SCC(=O)O)s2)cc(C(C)(C)C)c1O | 188 °C
O=C(O)c1ccc(-c2nnn[nH]2)nc1 | 257 to 259 °C
Cn1nc(-c2cc(C=O)c(Cl)cc2F)c(Cl)c1C(F)(F)F | 70 to 72 °C
Cc1ccc(S(=O)(=O)N(CCO)c2cc(C)cc([N+](=O)[O-])c2N)cc1 | 201 °C
CN(C)c1ccc(-c2ccnc3c(C(=O)c4cccs4)cnn23)cc1NC(=O)c1ccccc1Cl | 220 to 222 °C
O=c1cc(-c2c(F)cccc2F)[nH]c(=O)n1-c1ccc(Cl)c(Cl)c1 | 256 °C
CC(=O)NC[C@H]1CN(c2ccc(C(=O)c3ccc4cnc(C)cn34)cc2)C(=O)O1 | 248 to 250 °C

The next lines start with the values.

melting point | SMILES
134 to 135 °C | O=[N+]([O-])c1ccc(OCCCO)cc1CS(=O)(=O)c1cccc2ccccc12
101 to 103 °C | O=C1NC[C@@H](C(=O)NCCO[N+](=O)[O-])O1
177 to 179 °C | CC(C)NCC(O)COc1ccc2c(=O)cc(-c3ccc(OCc4ccccc4)c(OCc4ccccc4)c3)oc2c1 (centres undefined)
111 °C | COc1c(Cl)cc(OCC=C(Cl)Cl)cc1C=NO
> 250 °C | c1cc(-c2cnc(-c3cccc(-c4cnco4)n3)o2)cc(-c2cnc(-c3cccc(-c4cnco4)n3)o2)c1
212 to 214 °C | Cc1ccccc1-c1c(C(=O)O)oc2ccc(Cl)cc12
95 °C | COc1cc(OCc2ccccc2)ccc1S(=O)(=O)Cl
138 to 140 °C | CCCCOc1ccc2c(c1)C(N(C)S(C)(=O)=O)C(O)C(C)(C)O2 (centres undefined)
102 to 104 °C | O=CC(CC(=O)O)NC(=O)[C@@H]1CCCN1C(=O)c1nc(CCc2ccccc2)c[nH]1 (some centres undefined)
80 to 83 °C | Oc1ccc(Nc2nc(NCc3ccco3)nc(Oc3ccc(O)cc3)n2)cc1
211 to 213 °C | COc1ccc(NS(=O)(=O)c2cc(S(=O)(=O)Nc3ccc(OC)cc3C)c3cc(O)ccc3c2)c(C)c1
279 to 280 °C | Fc1ccc(-c2nc3ccc(N4CCC5(CCCNC5)CC4)nn3c2-c2ccnc3[nH]ccc23)cc1
181 to 185 °C | C=CCOc1ncc(F)c(C2(C(=O)NN)C=CC=C(C)C2)n1 (centres undefined)
178 to 180 °C | COc1ccc(CN2C(=O)[C@@H](N3C(=O)c4ccccc4C3=O)[C@H]2c2ccc(Cl)cc2)c(OC)c1 (relative stereo)
> 310 °C | CCOc1ccc(CC)cc1-c1nc2ccc(C(=O)O)cc2c(=O)[nH]1
102 to 103 °C | CC(C)(C)c1ccc2c(c1)C(CO)c1cc(C(C)(C)C)ccc1-2
238 to 240 °C | Cc1cc(C(N)=O)cc(C)c1C(=O)O
194 to 196 °C | CCCNC(=O)c1cnc2cc(C)ccn2c1=O
203 °C | O=c1[nH]c(=O)n(C2CC(F)C(CCl)O2)cc1C=CBr (centres undefined)
64.5 to 67 °C | CC(C)C(C#N)Nc1ccc(C(F)(F)F)cc1 (centres undefined)

melting point | SMILES
135 to 138 °C | N=C(N)Nc1cc(Cl)ccc1N1CCOCC1
175 to 176 °C | CCOC(=O)C1=C(C)NC(N)=C(C(=O)OC(C)C)C1c1cccc([N+](=O)[O-])c1 (centres undefined)
126 to 129 °C | CC(C)(C)c1ccc2c(Cl)c3ccccc3c(C=O)c2c1
144 to 146 °C | Nc1cnccc1-c1ccc(Cl)cc1
157 to 158 °C | O=C(C=Cc1ccc2c(c1)OCO2)C1C(=O)CC(c2ccccc2)CC1=O (centres undefined)
158 to 160 °C | O=C(/C=C/C=C/c1ccccc1)NCCSCCC(=O)NO
150 to 153 °C | CN(C)Cc1cc(CSCCNc2ncc([N+](=O)[O-])c(=O)[nH]2)cs1
105 to 107 °C | COc1ccc2c3c(c4cc(OC)c(OC)cc4c2c1)C[C@H](CO)N(C(=O)OC(C)(C)C)C3
152 to 153 °C | O=C(O)CC1(c2ccccc2)Oc2ccccc2O1
189 °C | O=C(NCCc1ccccc1)Nc1ccc([N+](=O)[O-])cc1O
66 to 67 °C | C#CCN(C)CC1=Cc2ccccc2Oc2ccccc21
67 °C | C=CCc1c([N+](=O)[O-])ccc2c1OC(CO)CO2 (centres undefined)
129 to 130 °C | O=c1[nH]c2ccc(NCCCc3ccccc3)cc2o1
115 to 116 °C | CCOC(=O)N1CCN(c2c(-c3ccccc3)sc3ccccc23)CC1
209 to 211 °C | CCCCn1c(=O)n(CCC)c(=O)c2c(N)n[nH]c21
63 to 65 °C | CCOC(=O)c1cc(Cl)cc(N)c1Cl
54 to 58 °C | C=C(c1ccccc1)C(c1ccc(F)cc1)C(O)n1ncnc1S (centres undefined)
101 to 102 °C | COc1ccccc1CN1Cc2cc(OC)c(OCc3ccccc3)cc2C(OC)C1 (centres undefined)
114 to 116 °C | C[C@H]1C(S(=O)(=O)c2ccccc2)C=C(Sc2ccccc2)CC[C@H]1O[Si](C)(C)C (some centres undefined)
76 °C | Clc1nc2c(c(N3CCCC3)n1)SCCC2

melting point | SMILES
174 to 176 °C | O=C(O)C1=Cc2cc(Cl)c(Oc3cccc(Cl)c3)cc2OC1C(F)(F)F (centres undefined)
251 to 252 °C | O=C(Nc1nc2ccccc2[nH]1)c1ccc(Cl)c(Cl)c1
152 to 153 °C | CCCC(CCC)n1c(CC)nc2[nH]c(=O)n(C)c(=O)c21
50 to 51 °C | C#Cc1ccc(C(=O)NCC(N)C(c2ccccc2)(c2ccccc2)c2ccccc2)cc1 (centres undefined)
94 to 97 °C | CCOC(=O)C1(c2ccc(OCc3ccccc3)cc2)CC2=C(C1)C(=O)C(OC)=C(OC)C2=O
145 to 146 °C | COC(=O)c1ccc(O)c(I)c1
166 to 167 °C | CCOC(=O)c1c(Cn2cncn2)nc2sc3ccncc3c2c1-c1ccc(OC)c(OC)c1
121 to 123 °C | CC(C)CCOc1c(-c2ccc(S(C)(=O)=O)cc2)cnn(-c2ccc(F)c(F)c2)c1=O
91 to 95 °C | CC(=O)SCCC(=O)N1[C@@H](c2ccccc2O)SC[C@H]1C(=O)N(c1ccccc1)[C@@H](C)C(=O)O
116 to 121 °C | Cn1c(C(C)(C)C)cn(N=Cc2cccnc2)c1=O
169 °C | OCC1OC(n2c(Br)nc3cc(Cl)c(Cl)cc32)C(O)C1O (centres undefined)
70 to 76 °C | CC(C)CC1CNCCNCCNCCNCCN1 (centres undefined)
210 °C | Nc1nc(OCCC2CCCCC2)c2[nH]cnc2n1
138 to 140 °C | CNc1c(N)cnn1CCO
131 to 132 °C | Cc1sc(-c2ccccc2)nc1CCOc1ccc([N+](=O)[O-])cn1
57 to 58 °C | Brc1cc(Br)c(OC2C=CCC2)c(I)c1 (centres undefined)
142 to 143 °C | CC(O)C(NCc1ccc([N+](=O)[O-])cc1)C(=O)O (centres undefined)
84 to 87 °C | c1ccc2c(c1)SCCc1c-2n(CCCN2CCCCC2)c2ccccc12
101 to 103 °C | CCc1c(C)c2c(c(OS(=O)(=O)c3ccc(C)cc3)c1C/C=C(\C)CCC(=O)OC)C(=O)OC2
